This is an account of results in patent US10537603B2, “Pharmaceutical composition for preventing or treating angioedema, containing extract of peony root or mixture of peony root and licorice as active ingredient” (Korea Institute of Oriental Medicine, priority 2014, dated 2020).

Experiment [1] concerns advanced glycation end product (AGE) generation. As to the kind of experiment: Inhibition of advanced glycation end product (AGE) generation, BSA with fructose/glucose, fluorescence. In kind it is biochemical. The settings on record: BSA 10 mg/ml, 0.2 M fructose + 0.2 M glucose, 37° C., 7 days. As for the experimental part:
To determine the inhibitory effect of advanced glycation end product generation of the peony root extract, or the mixed extract of peony root and licorice, the present inventors used 10 mg/ml of bovine serum albumin (Sigma, St. Louis, Mo., USA) dissolved in 50 mM phosphate buffer (pH 7.4) as a protein source and a mixed liquid of 0.2 M fructose and 0.2 M glucose as a sugar source, respectively.
The extracts of <Example 1> and a positive control group (aminoguanidine) were dissolved in 30 μl of 0.2% DMSO, and then again dissolved in 15% tween 80. The protein source, the sugar source and the extracts of the present invention as prepared above were mixed and compounded to a total of 1 ml, and then each cultured at 37° C. for 7 days to allow for glycation. At this time 0.02% azide (sodium azide) was added thereto to prevent from generating bacteria during the culture period. After the culture fluorescence (spectrofluorometric detector; Bio-TEK, Synergy HT, USA; Ex: 350 nm; Em: 450 nm) was measured and then calculated with Equation 1 below, with showing the result in Table 2.

Experiment [2] relates to MNU-induced animal models. The experiment is described as follows: Comparison of CJG30R and paeoniflorin in MNU-induced age-related macular degeneration model (ONL thickness). Format: in vivo, C57BL/6 mice. The settings on record: CJG30R 100 mg/kg, PF 6.5 mg/kg oral. The protocol:
The 6-week-old male C57BL/6 mice were used after acclimatization for 1 week. To induce damage and degeneration of photoreceptor cells among morphological changes of retinal tissues appearing in macular degeneration, 1% (0.05% acetic acid) N-methyl-N-nitrosourea (MNU, Sigma, USA) was intraperitoneally injected to the 7-week-old male C57BL/6 mice (60 mg/kg). The same amount of 0.05% acetic acid was intraperitoneally administered to the normal group. CJG30R (100 mg/kg) and PF-6.6 (6.5 mg/kg) as test drugs were suspended and compounded in 0.5% sodium carboxymethyl cellulose (CMC), orally administrated one day before MNU administration, and orally administrated once per day for 7 days after MNU administration. The same amount of 0.5% CMC was orally administrated to the normal group and the MNU-induced group. After completing administration of the test drugs, eyes were enucleated by carrying out an autopsy on the mice, and then mounted on 10% neutralized formalin for one day and embedded in paraffin to prepare slide sections. Slide sections were stained with Hematoxylin & Eosin (H & E) and observed under an optical microscope. The damage and degeneration of the photoreceptor cells were measured and evaluated by thickness changes in the outer nuclear layer of the retinal tissues.

The test system of experiment [3] is human retinal pigment epithelial cell lines (ARPE-19). The settings on record: ARPE-19, Molecular Vision 2011; 17: 3512-3522; cited from earlier work.

Turning to `N=C(N)NN` [Aminoguanidine, aminoguanidine], the “IC50, inhibitory effect of advanced glycation end product generation” value in experiment [1] is 81.38 ± 2.70 µg/mL.
On to `C[C@@]12C[C@@]3(O)O[C@@H](O1)[C@]1(COC(=O)c4ccccc4)[C@H]3C[C@@]12O[C@@H]1O[C@H](CO)[C@@H](O)[C@H](O)[C@H]1O` [PF-6.5, paeoniflorin], for which, in experiment [2], the “Effect on outer nuclear layer damage as compared to the MNU administration group” value is recorded as “no effect at all”. In addition, the “ONL thickness (AU)” value in experiment [2] (MNU 60 mg/kg i.p., NOR 1.99 ± 0.21, MNU 0.92 ± 0.17) stood at 0.96 ± 0.17 AU. For the same compound, the “ONL thickness (%)” value in experiment [2] (NOR = 100, MNU = 0) is recorded as 3.52 ± 16.11%. Moreover, in experiment [3], the “Effect on cell death due to H2O2 and oxidative stress” value is “inhibitory effects”.
